Source: patent publication EP0491041A1, “ANTIVIRAL DRUG” (NIPPON SHINYAKU COMPANY, LIMITED, priority 1989, dated 1991)
In brackets after ≈: the same amount, converted by molar mass.

Assays:
[1] = test system: virus; assay: Antiviral action test: screening by inhibition of cell degeneration effect (CPE) in virus-infected HeLa cells; format: cell-based; conditions: amount of added drug whereby the CPE became 50%, M.O.I = 0.002, culture for three days
Procedure: HeLa cells were subjected to subcultured by monolayer culture (Eagle's MEM-10% CS) and infected as M.O.I. (multiplicity of infection) = 0.01.
On the first day, HeLa cells were spread in a 75 cm³ flask and cultured on a one-day growth medium (Eagle's MEM-10% CS). On the second day, old medium was removed after confirming the formation of cell sheet, then M.O.I was made 0.01 PFU/cell and 0.5 ml of virus solution was added. The original virus solution was diluted with PBS-3% FCS solution. Operation of the virus inoculation was conducted by tilting for 1 hour at room temperature. After virus was inoculated on the cells, the virus-inoculated solution was removed, washed twice with 10 ml PBS and the residual virus solution was removed. Then 15 ml of maintenance medium (Eagle's MEM-1% CS) was added and cultured at 37°C for 2 days. The cells were observed from time to time and the culture was continued until cell fusion and cell rounding were confirmed. After the culture, medium was recovered which was used as a virus solution and was stored at -20°C until actual use.
The 78 cm³ flask containing HeLa cells which were subjected to a monolayer maintenance subculture was taken out, the old medium was discarded, 2-3 ml of 0.25% trypsine (Difco = 1:250)-0.02% EDTA/PBS(-) solution was added, tilted for a few seconds, the trypsine solution was removed and warmed at 37°C for 5 minutes. Then fresh medium was added, pipetted with a Komagome pipette and the cells were homogeneously dispersed.
Cells were counted using a cytometer, then fresh medium was added, diluted to make the cell concentration 5 x 10⁵ cells/ml, 2 ml of that was added to a laboratory dish of 35 mm diameter and cultured in a CO₂-incubator at 37°C for one day to prepare cell sheet.
The virus solution was diluted by a diluting solution to make diluted solutions of ten-times difference or step. The laboratory dish wherein HeLa cells were cultured on the previous day was taken out from the incubator, old medium was discarded and the cells were washed with each 2 ml of PBS twice. Properly diluted virus solution (0.2 ml) was added to each laboratory dish, subjected to a tilting at room temperature for 60 minutes immediately and virus was inoculated. Then the virus solution was removed, each 2 ml of 0.5% methylcellulose/Eagle's MEM-1% CS was added and cultured in a CO₂ incubator for 4 days.
The cultured laboratory dish was taken out from the CO₂-incubator and methylcellulose medium was removed. Then cells were washed with 2 ml of PDS, 2 ml of methanol was added, allowed to stand for 10 minutes and cells were immobilized and, at the same time, virus was sterilized. Hematoxylin dyeing solution (2 ml) was added to the laboratory dish which was immobilized with methanol, allowed to stand for about 10 minutes, washed with water and air-dried at room temperature. Since the cells destructed with virus were not dyed, plaque area was noted as a void and the plaque numbers were counted whereby virus value (PFU/ml) (Plaque forming units/ml) was measured.
HeLa cells during the subculture were dispersed with trypsine liquid-EDTA solution, 5 x 10⁵ cells/pore were embedded on a plate having 24 pores and cultured overnight at 37°C in a CO₂-incubator to prepare cell sheet.
As mentioned above, old medium was discarded, the cells were washed with PBS, the virus solution was diluted to make M.O.I = 0.002, 0.1 ml of it was added to each pore, subjected to a tilting at room temperature for 60 minutes and virus was inoculated to the cell.
Virus solution was removed from the cells after inoculation of virus, the cells were washed with 2 ml of PBS, each 1 ml of maintenance medium was added to each pore, then each 10 µl of the drug was added and the cells were cultured in a CO₂-incubator. Culture was conducted for three days.
The cells on the plate were observed under an invert microscope. Cell degeneration effect (CPE) was observed as cell fusion and making the cells round. […]

[2] = Acute toxicity test in mice; format: in vivo; conditions: male mice, ddY strain, observation for one week
Procedure: Four male mice (ddY strain; six weeks age) were used for each drug tested.
In the intraperitoneal administration, each drug was suspended in 0.5% CMC-physiological saline solution and 0.1 ml (per 10 g body weight of mouse) of the suspension was intraperitoneally given to mouse. In the case of oral administration, each drug was suspended in 0.5% CMC-physiological saline solution and 0.2 ml (per 10 g body weight of mouse) of the suspension was given orally. Observation was started soon after administration and, after observation for one week, the mice were killed by chloroform and subjected to autopsied. LD₅₀ of each drug tested was given in the following tables wherefrom it is clear that the compounds of the present invention are safe.

| Structure (SMILES) | EC50 (50% CPE inhibition) [1] | L D ₅₀ ([2]; Intraperitoneal Administration) | L D ₅₀ ([2]; Oral Administration) |
| --- | --- | --- | --- |
| CC(=CCCN1C[C@H](O)[C@@H](O)[C@H](O)[C@H]1CO)c1ccc(Oc2ccccc2)cc1 [Compound No. 115, N-[4-(4-Phenoxyphenyl)-3-pentenyl]moranoline] | 1 µg/mL (≈ 2.5 µM) | > 300 mg/kg | > 5,000 mg/kg |
| COc1ccc(C(C)=CCN2C[C@H](O)[C@@H](O)[C@H](O)[C@H]2CO)cc1 [Compound No. 103, N-(magga-Methyl-4-methoxycinnamyl)moranoline] | 30 µg/mL (≈ 92.8 µM) | > 300 mg/kg | > 5,000 mg/kg |
| OC[C@@H]1[C@@H](O)[C@H](O)[C@@H](O)CN1CCCCOc1ccc(Cl)cc1 [Compound No. 141, N-[4-(4-Chlorophenoxy)butyl]moranoline] | 1 µg/mL (≈ 2.89 µM) | > 300 mg/kg | > 5,000 mg/kg |
